Data: US20240208965A1, “HETEROARYL ALKYLENE SUBSTITUTED 2-OXOQUINAZOLINE DERIVATIVES AS METHIONINE ADENOSYLTRANSFERASE 2A INHIBITORS” (IDEAYA BIOSCIENCES, INC., priority 2020, published 2024)

What follows are compounds tested against T1, Human MAT2A (Homo sapiens, UniProt P31153) (assay: Phosphate Sensor Fluorescence Assay (Biologic Example B)). Details: MAT2A inhibition, Biological Example B procedure (Compounds 1.029-1.070); 5.8 nM MAT2A, 500 uM L-methionine, 500 uM ATP.
T1 construct: Human MAT2A: Cepter, amino acids 1-395 Clone ID 334, lot 00023-148; purchased Cepter clone ID 334, lot 00023-148
T1 sequence (P31153 whole entry, the tested form may be a part): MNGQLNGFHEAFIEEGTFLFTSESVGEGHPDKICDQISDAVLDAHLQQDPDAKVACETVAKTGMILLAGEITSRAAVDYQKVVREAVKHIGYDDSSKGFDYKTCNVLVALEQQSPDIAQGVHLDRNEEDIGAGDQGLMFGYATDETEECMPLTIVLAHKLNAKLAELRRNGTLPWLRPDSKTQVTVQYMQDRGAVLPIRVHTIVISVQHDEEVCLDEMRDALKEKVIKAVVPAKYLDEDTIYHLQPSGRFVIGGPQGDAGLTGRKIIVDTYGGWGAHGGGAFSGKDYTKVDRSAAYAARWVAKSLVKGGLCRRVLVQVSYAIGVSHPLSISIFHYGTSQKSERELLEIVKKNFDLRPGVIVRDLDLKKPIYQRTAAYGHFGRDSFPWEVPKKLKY
Assay type: biochemical
Description: The ability of the compound of present disclosure to inhibit MAT2A enzyme was determined using a Phosphate Sensor Fluorescence Assay described below.
Biologic Example B. Phosphate Sensor Fluorescence Assay
MAT2A enzyme is incubated with a test compound in DMSO or DMSO and its substrates (L-methionine and ATP) in a microtiter plate. The enzymatic reaction is stopped by the addition of Working Phosphate Sensor Mixture. The plate is analyzed for fluorescence at 450 nm. The high control (DMSO with enzyme and its substrates) gives high fluorescence which represents no inhibition of enzymatic activity while the low control (DMSO with MAT2A substrates and no enzyme) gives low fluorescence which represents full inhibition of enzymatic activity.
• Human MAT2A: Cepter, amino acids 1-395 Clone ID 334, lot 00023-148 • Tris, pH 7.5: Invitrogen cat #15567-027 • KCl: Ambion cat #AM9640G • MgCl2: Ambion cat #AM9530G • Brij-35: Sigma cat B4184-10ML • DTT: Goldbio cat #DTT100 • BGG: Sigma cat #G5009-25G • PNP: Novus Biologicals cat #NBP1-50872 • 7-MEG: Cayman Chemical cat #15988 • L-Methionine: JTBaker P/N 2085-05 • ATP: Promega P/N V915B • Phosphate Sensor: Invitrogen cat #PV4407 • EDTA: Life Tech cat #15575-038 • Assay plate: 384-well black polypropylene plate: Corning P/N 3573
• Assay Buffer: 50 mM Tris, pH 7.5/50 mM KCl/10 mM MgCl2/0.01% Brij-35/1 mM DTT/0.01% BGG/40 nM PNP/6 uM 7-MEG • MAT2A: 5.8 nM MAT2A (1-395), Cepter, clone ID 334, lot 00023-148 before the addition of Working Phosphate Sensor Mixture • L-methionine: 500 uM before the addition of Working Phosphate Sensor Mixture • ATP: 500 uM before the addition of Working Phosphate Sensor Mixture
For the assay, a mixture of 1 mM L-methionine/1 mM ATP (2× final pre-stopped concentration) in assay buffer; MAT2A (2× final pre-stopped concentration) in Assay Buffer and Working Phosphate Sensor Mixture (1.5 uM Phosphate Sensor/30 mM EDTA in Assay Buffer, which is 3× final concentrations) were prepared. Test compounds or DMSO were added to the appropriate well using a Beckman Coulter Echo 550 acoustic liquid handler. 10 μL/well of Assay Buffer was added to the wells corresponding to the negative control and 10 μL/well of MAT2A was added to all the wells except for those corresponding to the negative control. After incubating the plate at room temperature for 15 minutes, 10 μL/well of the 1 mM L-methionine/1 mM ATP mixture was added to all wells. The plate was centrifuged at 1000 rpm for 1 minute and then incubated at room temperature for 1 hour. 10 μL of the Working Phosphate Sensor Mixture was added to all wells and the plate was centrifuged at 1000 rpm for 1 minute. The plate was read for fluorescence at 450 nm after exciting at 430 nm on a Tecan Spark microplate reader.
Percent inhibition was calculated in Chemical and Biological Information System (CBIS), (ChemInnovation Software Inc.). Curves were fitted by CBIS as % inhibition vs. log [compound concentration] using a 4-parameter inhibition model.
Fit=(A+((B−A)/(1+((C/x)^D))))
Compounds 1.001-1.028 were tested using the procedure described in Bioogical Example A, described above. Compounds 1.029-1.070 were tested using the procedure described in Biological Example B, described above.
`CNc1nc(=O)n(Cc2cocn2)c2cc(C(F)(F)F)ccc12` [1.066, 4-(Methylamino)-1-(oxazol-4-ylmethyl)-7-(trifluoromethyl)quinazolin-2(1H)-one] showed an IC50 of 10 to 200 nM. Work on `C[C@@H](c1nc[nH]n1)n1c(=O)nc(N(C)C)c2ccc(Cl)cc21` (single isomer, unassigned) [1.061] yielded an IC50 of 500 to 1000 nM. Work on `C[C@H](c1cnc[nH]1)n1c(=O)nc(N(C)C)c2ccc(Cl)cc21` (single isomer, unassigned) [1.047] yielded an IC50 of less than 10 nM. `CC(c1c[nH]cn1)n1c(=O)nc(N(C)C)c2ccc(Br)cc21` (stereo not shown) [1.031, 1-(1-(1H-imidazol-4-yl)ethyl)-7-bromo-4-(dimethylamino)quinazolin-2(1H)-one] was tested, and the IC50 was 10 to 200 nM. `Cc1nc[nH]c1Cn1c(=O)nc(N(C)C)c2ccc(C(F)(F)F)cc21` [1.050, 4-(Dimethylamino)-1-((4-methyl-1H-imidazol-5-yl)methyl)-7-(trifluoromethyl)quinazolin-2(1H)-one] showed an IC50 of 1000 to 10000 nM. Work on `CNc1nc(=O)n(Cc2cnsc2)c2cc(C(F)(F)F)ccc12` [1.029, 1-(Isothiazol-4-ylmethyl)-4-(methylamino)-7-(trifluoromethyl)quinazolin-2(1H)-one] yielded an IC50 of 1000 to 10000 nM. `CN(C)c1nc(=O)n(Cc2ccn[nH]2)c2cc(Cl)ccc12` [1.056, 1-((1H-pyrazol-5-yl)methyl)-7-chloro-4-(dimethylamino)quinazolin-2(1H)-one] was tested, and the IC50 was 10 to 200 nM. `C[C@@H](c1cnc[nH]1)n1c(=O)nc(N2CCC2)c2ccc(Br)cc21` (single isomer, unassigned) [1.040] gave an IC50 of 10 to 200 nM. `C[C@@H](c1cc[nH]n1)n1c(=O)nc(N)c2ccc(Cl)cc21` (single isomer, unassigned) [1.070] gave an IC50 of 200 to 500 nM. Work on `CN(C)c1nc(=O)n(Cc2cccnc2)c2nc(C(F)(F)F)ccc12` [1.053, 4-(Dimethylamino)-1-(pyridin-3-ylmethyl)-7-(trifluoromethyl)pyrido[2,3-d]pyrimidin-2(1H)one] yielded an IC50 of 1000 to 10000 nM. `CCN(C)c1nc(=O)n([C@H](C)c2cnc[nH]2)c2cc(C(F)(F)F)ccc12` (single isomer, unassigned) [1.036] was tested, and the IC50 was 10 to 200 nM. For `CCC(c1cnc[nH]1)n1c(=O)nc(N(C)C)c2ccc(C(F)(F)F)cc21` (stereo not shown) [1.033, 1-(1-(1H-imidazol-5-yl)propyl)-4-(dimethylamino)-7-(trifluoromethyl)quinazolin-2(1H)-one], the IC50 was 200 to 500 nM. `CC(C)N(C)c1nc(=O)n([C@@H](C)c2cnc[nH]2)c2cc(C(F)(F)F)ccc12` (single isomer, unassigned) [1.037] showed an IC50 of 10 to 200 nM. `CNc1nc(=O)n(Cc2cscn2)c2cc(C(F)(F)F)ccc12` [1.067, 4-(Methylamino)-1-(thiazol-4-ylmethyl)-7-(trifluoromethyl)quinazolin-2(1H)-one] was tested, and the IC50 was 1000 to 10000 nM. Compound `CN(C)c1nc(=O)n(Cc2ccccn2)c2nc(C(F)(F)F)ccc12` [1.052, 4-(Dimethylamino)-1-(pyridin-2-ylmethyl)-7-(trifluoromethyl)pyrido[2,3-d]pyrimidin-2(1H)-one] has an IC50 of 10 to 200 nM. `CNc1nc(=O)n(Cc2cnco2)c2cc(C(F)(F)F)ccc12` [1.065, 4-(Methylamino)-1-(oxazol-5-ylmethyl)-7-(trifluoromethyl)quinazolin-2(1H)-one] was tested, and the IC50 was 500 to 1000 nM. `C[C@H](c1cc[nH]n1)n1c(=O)nc(N(C)C)c2ccc(Cl)cc21` (single isomer, unassigned) [1.059] was tested, and the IC50 was less than 10 nM. `CN(C)c1nc(=O)n(C(c2cnc[nH]2)C2CC2)c2cc(C(F)(F)F)ccc12` (stereo not shown) [1.045, 1-(Cyclopropyl(1H-imidazol-5-yl)methyl)-4-(dimethylamino)-7-(trifluoromethyl)quinazolin-2(1H)-one] gave an IC50 of 200 to 500 nM. Work on `CC(c1cc[nH]n1)n1c(=O)nc(N(C)C)c2ccc(Cl)cc21` (racemic) [1.062, 1-(1-(1H-pyrazol-3-yl)ethyl)-7-chloro-4-(dimethylamino)quinazolin-2(1H)-one] yielded an IC50 of less than 10 nM. In the case of `CC(c1c[nH]cn1)n1c(=O)nc(N2CCC2)c2ccc(Br)cc21` (stereo not shown) [1.032, 1-(1-(1H-imidazol-4-yl)ethyl)-4-(azetidin-1-yl)-7-bromoquinazolin-2(1H)-one], the IC50 is reported as 10 to 200 nM. `CC[C@@H](c1cnc[nH]1)n1c(=O)nc(N(C)C)c2ccc(C(F)(F)F)cc21` (single isomer, unassigned) [1.042] showed an IC50 of 200 to 500 nM. Compound `CN(C)c1nc(=O)n(Cc2cnc[nH]2)c2cc(C(F)(F)F)ccc12` [1.030, 1-((1H-Imidazol-5-yl)methyl)-4-(dimethylamino)-7-(trifluoromethyl)quinazolin-2(1H)-one] has an IC50 of 10 to 200 nM. With `C[C@H](c1cnc[nH]1)n1c(=O)nc(N2CCC2)c2ccc(Br)cc21` (single isomer, unassigned) [1.039] the IC50 was 200 to 500 nM. `CN(C)c1nc(=O)n([C@H](c2c[nH]cn2)C(F)F)c2nc(C(F)(F)F)ccc12` (single isomer, unassigned) [1.064] showed an IC50 of 200 to 500 nM. Work on `CCN(C)c1nc(=O)n([C@@H](C)c2cnc[nH]2)c2cc(C(F)(F)F)ccc12` (single isomer, unassigned) [1.035] yielded an IC50 of 10 to 200 nM. Compound `CN(C)c1nc(=O)n([C@@H](c2c[nH]cn2)C(F)F)c2nc(C(F)(F)F)ccc12` (single isomer, unassigned) [1.063] has an IC50 of 1000 to 10000 nM. `C[C@H](c1cc[nH]n1)n1c(=O)nc(N)c2ccc(Cl)cc21` (single isomer, unassigned) [1.069] was tested, and the IC50 was 10 to 200 nM. Compound `C[C@H](c1cnc[nH]1)n1c(=O)nc(N(C)C)c2ccc(Br)cc21` (single isomer, unassigned) [1.043] has an IC50 of 10 to 200 nM. `CC[C@H](c1cnc[nH]1)n1c(=O)nc(N(C)C)c2ccc(C(F)(F)F)cc21` (single isomer, unassigned) [1.041] gave an IC50 of 10 to 200 nM. With `CC(c1cnc[nH]1)n1c(=O)nc(N(C)C)c2ccc(C(F)(F)F)nc21` (stereo not shown) [1.046, 1-(1-(1H-Imidazol-5-yl)ethyl)-4-(dimethylamino)-7-(trifluoromethyl)pyrido[2,3-d]pyrimidin-2(1H)-one] the IC50 was 10 to 200 nM. With `CN(C)c1nc(=O)n(Cc2cn(C)cn2)c2cc(C(F)(F)F)ccc12` [1.058, 4-(Dimethylamino)-1-((1-methyl-1H-imidazol-4-yl)methyl)-7-(trifluoromethyl)quinazolin-2(1H)-one] the IC50 was 1000 to 10000 nM. `CN(C)c1nc(=O)n(Cc2ccncc2)c2nc(C(F)(F)F)ccc12` [1.054, 4-(Dimethylamino)-1-(pyridin-4-ylmethyl)-7-(trifluoromethyl)pyrido[2,3-d]pyrimidin-2(1H)one] showed an IC50 of 1000 to 10000 nM. `CN(C)c1nc(=O)n(CC2CNC(=O)C2)c2cc(C(F)(F)F)ccc12` (stereo not shown) [1.057, 4-(Dimethylamino)-1-((5-oxopyrrolidin-3-yl)methyl)-7-(trifluoromethyl)quinazolin-2(1H)-one] was tested, and the IC50 was 500 to 1000 nM. `CNc1nc(=O)n(Cc2cncs2)c2cc(C(F)(F)F)ccc12` [1.068, 4-(Methylamino)-1-(thiazol-5-ylmethyl)-7-(trifluoromethyl)quinazolin-2(1H)-one] was tested, and the IC50 was 500 to 1000 nM. With `C[C@H](c1nc[nH]n1)n1c(=O)nc(N(C)C)c2ccc(Cl)cc21` (single isomer, unassigned) [1.060] the IC50 was 10 to 200 nM. `CN(C)c1nc(=O)n(Cc2nc[nH]n2)c2cc(C(F)(F)F)ccc12` [1.051, 1-((1H-1,2,4-Triazol-3-yl)methyl)-4-(dimethylamino)-7-(trifluoromethyl)quinazolin-2(1H)-one] showed an IC50 of 10 to 200 nM. `C[C@@H](c1cnc[nH]1)n1c(=O)nc(N(C)C)c2ccc(Cl)cc21` (single isomer, unassigned) [1.048] showed an IC50 of 10 to 200 nM.
